The record followed here is patent US20250304567A1, “PYRROLIDIONE DERIVATIVES AS INHIBITORS OF NF KAPPA B INDUCING KINASE” (priority 2022, published 2025).

Read-outs that look alike come from different tables or passages of the source.

Experiment [1] concerns the target Recombinant Human NF-kappaB-Inducing Kinase (NIK/MAP3K14) (Homo sapiens, UniProt Q99558). Nature of the experiment: Inhibition of auto-phosphorylation of recombinant human NIK/MAP3K14 activity (AlphaScreen). It is filed as biochemical. Conditions: 5 μM ATP, 1 nM NIK, average if tested more than once. In a few lines:
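AlphaScreen detection of phospho-Ser176/180 after 1 nM GST-NIK auto-phosphorylates for 2 h at 25 °C with 5 μM ATP (50 mM Tris pH 7.5, 0.7% DMSO). IC50s come from sigmoidal curves of % inhibition against log dose, using enzyme-free, ATP-free low controls and full-activity high controls.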
(Alpha assays give light when donor and acceptor beads are brought close together.)

In experiment [2] the test system is p-IKKa levels in L363 (NIK translocated multiple myeloma) cells. The experiment can be described thus: Effect of compounds on p-IKKa levels in L363 (NIK translocated multiple myeloma) cells (AlphaLISA SureFire Ultra p-IKKa Ser176/180). Conditions: average if tested more than once, read-out: Assay 2 IC50. It is filed as cell-based, human. Put shortly: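 Phospho-IKKa (Ser176/180) in lysates quantified by AlphaLISA after 6 h compound exposure, 11-point threefold dilutions, 0.3% DMSO. L363 cells were pre-stimulated overnight and assayed with 250 ng/ml BAFF and 10 μM MG132; % inhibition fitted sigmoidally for IC50, duplicate curves.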

Setting [3] is: Homo sapiens, L-363, p-IKKa levels in L363 cells.

Chain of Recombinant Human NF-kappaB-Inducing Kinase (NIK/MAP3K14) (Q99558 whole entry): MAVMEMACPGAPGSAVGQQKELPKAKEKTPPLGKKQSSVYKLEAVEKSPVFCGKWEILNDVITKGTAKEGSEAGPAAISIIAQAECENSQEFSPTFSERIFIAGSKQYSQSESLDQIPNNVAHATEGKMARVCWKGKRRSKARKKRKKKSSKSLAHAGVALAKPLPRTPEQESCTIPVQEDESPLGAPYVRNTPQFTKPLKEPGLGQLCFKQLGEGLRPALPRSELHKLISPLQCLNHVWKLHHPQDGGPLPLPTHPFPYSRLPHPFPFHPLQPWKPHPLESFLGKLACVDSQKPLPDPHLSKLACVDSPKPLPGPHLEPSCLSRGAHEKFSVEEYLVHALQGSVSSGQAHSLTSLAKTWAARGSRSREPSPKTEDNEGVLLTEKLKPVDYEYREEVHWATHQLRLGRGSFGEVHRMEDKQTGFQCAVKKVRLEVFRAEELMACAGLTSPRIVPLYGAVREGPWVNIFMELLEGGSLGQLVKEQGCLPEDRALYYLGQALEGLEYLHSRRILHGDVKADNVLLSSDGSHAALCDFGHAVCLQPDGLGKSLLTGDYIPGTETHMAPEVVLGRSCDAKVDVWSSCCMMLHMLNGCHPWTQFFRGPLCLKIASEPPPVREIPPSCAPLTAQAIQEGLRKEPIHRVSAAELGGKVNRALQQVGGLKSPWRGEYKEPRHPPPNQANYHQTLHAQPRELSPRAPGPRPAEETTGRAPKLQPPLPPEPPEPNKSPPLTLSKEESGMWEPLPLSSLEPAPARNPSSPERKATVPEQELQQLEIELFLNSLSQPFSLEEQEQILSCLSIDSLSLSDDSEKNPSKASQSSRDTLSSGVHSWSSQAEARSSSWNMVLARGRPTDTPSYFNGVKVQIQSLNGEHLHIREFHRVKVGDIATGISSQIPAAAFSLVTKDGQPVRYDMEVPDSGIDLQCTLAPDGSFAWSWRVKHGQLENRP

As to `CN1CC[C@@](O)(c2cccc(-c3nc(-c4ccnc(NC5CCCn6nccc65)n4)cs3)c2)C1=O` (stereo partly drawn) [Example 123, (R)-3-hydroxy-1-methyl-3-(3-(4-(2-(((R,S)-4,5,6,7-tetrahydropyrazolo[1,5-a]pyridin-4-yl)amino)pyrimidin-4-yl)thiazol-2-yl)phenyl)pyrrolidin-2-one], the IC50 (in general, the concentration needed to halve the response being measured) was less than 100 nM in experiment [1] and more than 501 nM in experiment [2] (setting [3]).
With `CN1CC[C@@](O)(c2cccc(-c3nc(-c4ccnc(N[C@@H]5[C@@H]6COC[C@@H]65)n4)cs3)c2)C1=O` [Example 214], the IC50 in experiment [1] was 100 to 500 nM; in experiment [2] (setting [3]) it was more than 501 nM.
Consider `CN1CC[C@@](O)(c2cccc(-c3nc(-c4ccnc(Nc5cn(CCF)cn5)n4)cs3)c2)C1=O` [Example 117, (R)-3-(3-(4-(2-((1-(2-fluoroethyl)-1H-imidazol-4-yl)amino)pyrimidin-4-yl)thiazol-2-yl)phenyl)-3-hydroxy-1-methylpyrrolidin-2-one], for which the results for the IC50 in experiment [1] and in experiment [2] (setting [3]) were less than 100 nM and 100 to 500 nM, respectively.
Regarding `CN1CC[C@@](O)(c2cccc(-c3nc(-c4ccnc(N[C@@H]5CNC(=O)C5)n4)cs3)c2)C1=O` [Example 171], the IC50 in experiment [1] is less than 100 nM; in experiment [2] (setting [3]) it was more than 501 nM.
In the case of `CN1CC[C@@](O)(c2cccc(-c3ccn(-c4ccnc(Nc5ccn(C)n5)n4)n3)c2)C1=O` [Example 2, (R)-3-hydroxy-1-methyl-3-(3-(1-(2-((1-methyl-1H-pyrazol-3-yl)amino)pyrimidin-4-yl)-1H-pyrazol-3-yl)phenyl)pyrrolidin-2-one], the IC50 in experiment [1] was less than 100 nM; in experiment [2] (setting [3]), 100 to 500 nM.
On to `CN1CC[C@@](O)(c2cccc(-c3nc(-c4ccnc(Nc5ccn(CC(F)F)n5)n4)cs3)c2)C1=O` [Example 258, (R)-3-(3-(4-(2-((1-(2,2-Difluoroethyl)-1H-pyrazol-3-yl)amino)pyrimidin-4-yl)thiazol-2-yl)phenyl)-3-hydroxy-1-methylpyrrolidin-2-one], for which the IC50 is less than 100 nM in experiment [1] and 100 to 500 nM in experiment [2] (setting [3]).
On the same counts, the results for `CN1CC[C@@](O)(c2cccc(-c3nc(-c4ccnc(Nc5nc(C(F)(F)F)cs5)n4)cs3)c2)C1=O` [Example 248] are less than 100 nM and 100 to 500 nM.
`C[C@H](Nc1nccc(-c2nc(-c3cccc([C@]4(O)CCN(C)C4=O)c3)cs2)n1)c1ccnn1C` (single isomer, unassigned) [Example 126]: the IC50 in experiment [1] is less than 100 nM; in experiment [2] (setting [3]), 100 to 500 nM.
Regarding `CN1CC[C@@](O)(c2cccc(-c3nc(-c4ccnc(NCCCO)n4)cs3)c2)C1=O` [Example 174], the IC50 in experiment [1] is less than 100 nM; in experiment [2] (setting [3]), more than 501 nM.
For the molecule `CN1CC[C@@](O)(c2cccc(-c3nc(-c4ccnc(NC5CC5)n4)cs3)c2)C1=O` [Example 137, (R)-3-(3-(4-(2-(cyclopropylamino)pyrimidin-4-yl)thiazol-2-yl)phenyl)-3-hydroxy-1-methylpyrrolidin-2-one], the figures for the IC50 in experiment [1] and in experiment [2] (setting [3]) were less than 100 nM and more than 501 nM, respectively.
Turning to `Cc1nocc1Nc1nccc(-c2csc(-c3cccc([C@]4(O)CCN(C)C4=O)c3)n2)n1` [Example 275, (R)-3-Hydroxy-1-methyl-3-(3-(4-(2-((3-methylisoxazol-4-yl)amino)pyrimidin-4-yl)thiazol-2-yl)phenyl)pyrrolidin-2-one], the half-inhibitory concentration (IC50) in experiment [1] and in experiment [2] (setting [3]) was less than 100 nM each time.
Regarding `CC(Nc1nccc(-c2nc(-c3cccc(C4(O)CCN(C)C4=O)c3)cs2)n1)c1cc[nH]n1` (single isomer, unassigned) [Example 42], the results for the IC50 in experiment [1] and in experiment [2] (p-IKKa levels in L363 cells) were less than 100 nM and more than 501 nM, respectively.
For the molecule `CN1CC[C@@](O)(c2cccc(-c3nc(-c4ccnc(NCc5ncco5)n4)cs3)c2)C1=O` [Example 111, (R)-3-hydroxy-1-methyl-3-(3-(4-(2-((oxazol-2-ylmethyl)amino)pyrimidin-4-yl)thiazol-2-yl)phenyl)pyrrolidin-2-one], the IC50 in experiment [1] is less than 100 nM; in experiment [2] (setting [3]) it was more than 501 nM.
Consider `CC(C)Cn1cnc(Nc2nccc(-c3csc(-c4cccc([C@]5(O)CCN(C)C5=O)c4)n3)n2)c1` [Example 116, (R)-3-hydroxy-3-(3-(4-(2-((1-isobutyl-1H-imidazol-4-yl)amino)pyrimidin-4-yl)thiazol-2-yl)phenyl)-1-methylpyrrolidin-2-one], for which the IC50 in experiment [1] was less than 100 nM; in experiment [2] (setting [3]), more than 501 nM.
For the molecule `CC(Nc1nccc(-c2nc(-c3cccc(C4(O)CCN(C)C4=O)c3)cs2)n1)c1cc[nH]n1` (single isomer, unassigned) [Example 41], the IC50 in experiment [1] was less than 100 nM; in experiment [2] (p-IKKa levels in L363 cells), 100 to 500 nM.
On to `Cc1nccc(Nc2nccc(-c3csc(-c4cccc([C@]5(O)CCN(C)C5=O)c4)n3)n2)n1` [Example 159, (R)-3-Hydroxy-1-methyl-3-(3-(4-(2-((2-methylpyrimidin-4-yl)amino)pyrimidin-4-yl)thiazol-2-yl)phenyl)pyrrolidin-2-one], for which the IC50 in experiment [1] is less than 100 nM; in experiment [2] (setting [3]), more than 501 nM.
For `CN1CC[C@@](O)(c2cccc(-c3nc(-c4ccnc(Nc5cccc(C(F)(F)F)n5)n4)cs3)c2)C1=O` [Example 169, (R)-3-Hydroxy-1-methyl-3-(3-(4-(2-((6-(trifluoromethyl)pyridin-2-yl)amino)pyrimidin-4-yl)thiazol-2-yl)phenyl)pyrrolidin-2-one], the IC50 was less than 100 nM in experiment [1] and more than 501 nM in experiment [2] (setting [3]).
For the molecule `CN1CC[C@@](O)(c2cccc(-c3nc(-c4ccnc(NC5CC6(CC(O)C6)C5)n4)cs3)c2)C1=O` (stereo partly shown) [Example 188], the IC50 was 100 to 500 nM in experiment [1] and more than 501 nM in experiment [2] (setting [3]).
As to `CN1CC[C@@](O)(c2cccc(-c3nc(-c4ccnc(N[C@@H]5CCOC5)n4)cs3)c2)C1=O` [Example 251], the IC50 in experiment [1] is less than 100 nM; in experiment [2] (setting [3]) it was more than 501 nM.
Regarding `COCCn1cc(Nc2nccc(-c3nc(-c4cccc([C@]5(O)CCN(C)C5=O)c4)cs3)n2)cn1` [Example 86, (R)-3-hydroxy-3-(3-(2-(2-((1-(2-methoxyethyl)-1H-pyrazol-4-yl)amino)pyrimidin-4-yl)thiazol-4-yl)phenyl)-1-methylpyrrolidin-2-one], the IC50 in experiment [1] and in experiment [2] (setting [3]) was less than 100 nM throughout.
For the molecule `CN1CC[C@@](O)(c2cccc(-c3nc(-c4ccnc(N[C@H]5CC[C@@H](C#N)CC5)n4)cs3)c2)C1=O` [Example 243], the IC50 in experiment [1] is less than 100 nM; in experiment [2] (setting [3]) it was more than 501 nM.
Taken in the same sequence, the figures for `CN1CC[C@@](O)(c2cccc(-c3nc(-c4ccnc(Nc5cnn(C)c5)n4)cs3)c2)C1=O` [Example 177] were less than 100 nM and less than 100 nM.
On to `CN1CCC(Nc2nccc(-c3csc(-c4cccc([C@]5(O)CCN(C)C5=O)c4)n3)n2)C1=O` (stereo partly shown) [Example 201], for which the IC50 in experiment [1] and in experiment [2] (setting [3]) was more than 501 nM throughout.
For `COc1nn(CC(F)F)cc1Nc1nccc(-n2ccc(-c3cc([C@]4(O)CCN(C)C4=O)ccn3)n2)n1` (single isomer, unassigned) [Example 155, (R)-3-(2-(1-(2-((1-(2,2-difluoroethyl)-3-methoxy-1H-pyrazol-4-yl)amino)pyrimidin-4-yl)-1H-pyrazol-3-yl)pyridin-4-yl)-3-hydroxy-1-methylpyrrolidin-2-one or (S)-3-(2-(1-(2-((1-(2,2-difluoroethyl)-3-methoxy-1H-pyrazol-4-yl)amino)pyrimidin-4-yl)-1H-pyrazol-3-yl)pyridin-4-yl)-3-hydroxy-1-methylpyrrolidin-2-one], the IC50 in experiment [1] and in experiment [2] (setting [3]) was less than 100 nM in each case.
Turning to `CN1CC[C@@](O)(c2cccc(-c3nc(-c4ccnc(NC5CCN(S(C)(=O)=O)CC5)n4)cs3)c2)C1=O` [Example 47, (R)-3-Hydroxy-1-methyl-3-(3-(4-(2-((1-(methylsulfonyl)piperidin-4-yl)amino)pyrimidin-4-yl)thiazol-2-yl)phenyl)pyrrolidin-2-one], the values for the IC50 in experiment [1] and in experiment [2] (setting [3]) were less than 100 nM and more than 501 nM, respectively.
As for `CN1CC[C@@](O)(c2cccc(-c3cccc(-c4ccnc(Nc5ccn(C)n5)n4)n3)c2)C1=O` [Example 22, (R)-3-Hydroxy-1-methyl-3-(3-(6-(2-((1-methyl-1H-pyrazol-3-yl)amino)pyrimidin-4-yl)pyridin-2-yl)phenyl)pyrrolidin-2-one], the IC50 in experiment [1] and in experiment [2] (setting [3]) was more than 501 nM in each case.
On to `CN1CC[C@@](O)(c2cccc(-c3nc(-c4ccnc(Nc5ccn(CC6CC6)n5)n4)cs3)c2)C1=O` [Example 288, (R)-3-(3-(4-(2-((1-(cyclopropylmethyl)-1H-pyrazol-3-yl)amino)pyrimidin-4-yl)thiazol-2-yl)phenyl)-3-hydroxy-1-methylpyrrolidin-2-one], for which the IC50 in experiment [1] was less than 100 nM; in experiment [2] (setting [3]), 100 to 500 nM.
As to `CN1CC[C@@](O)(c2cccc(-c3nc(-c4ccnc(NCCc5cnn(C)c5)n4)cs3)c2)C1=O` [Example 187], the figures for the IC50 in experiment [1] and in experiment [2] (setting [3]) were less than 100 nM and more than 501 nM, respectively.
For the molecule `CN1CC[C@@](O)(c2cccc(-c3ccn(-c4ccnc(Nc5cn(CC(F)F)nc5OC5CC5)n4)n3)c2)C1=O` [Example 102, (R)-3-(3-(1-(2-((3-cyclopropoxy-1-(2,2-difluoroethyl)-1H-pyrazol-4-yl)amino)pyrimidin-4-yl)-1H-pyrazol-3-yl)phenyl)-3-hydroxy-1-methylpyrrolidin-2-one], the IC50 in experiment [1] and in experiment [2] (setting [3]) was less than 100 nM throughout.
